Laboratory results taken from patent publication US7696167B2, “Cyclic peptide compound” (Astellas Pharma Inc., priority 2004, dated 2010).

System: HCV replicon
Format: cell-based, hepatitis C virus
Conditions: HCV replicon cells, two days with compound, replicon RNA corrected by GAPDH; read-out: HCV replicon inhibitory activity: EC50
Protocol: The inhibitory activity against the replication of HCV replicon was evaluated by determining the amount of replicon RNA, purified from cell lysate with a conventional column method, using real-time RT-PCR based on Taq-Man chemistry. The assay was carried out with the modified method reported by Lohmann et al., Science 285: 100 (1999) and Takeuchi et al., Gastroenterology 116: 636-642 (1999). The details thereof are described in the following.
7.5×10^3 HCV replicon cells in 0.1 ml of D-MEM medium containing 5% fetal bovine serum and 300 μg/ml of G418 (Kishine et al., B.B.R.C. 293: 993-999 (2002)) were seeded in each well of a 96-well microtiter plate (Corning Inc.). After the plate was incubated at 37° C. for 16 hours in 5% CO2, the medium was replaced with the above-mentioned medium in which the test compound was dissolved. […]
RT-PCR was carried out by using the ABI PRISM 7900HT sequence detection system (Applied Biosystems Inc.), and the gene copy number of the HCV replicon RNA in each cell was determined. […]
As a further control for RNA recovery in each assay well, the copy number of cellular Glyceraldehyde-3-phosphate dehydrogenase (GAPDH) mRNA was quantified by real-time RT-PCR with specific primer set and probe (all of these were produced by Takara Shuzo Co., Ltd.) as described above (part3) […]

## C/C=C/C[C@@H](C)[C@@H](O)[C@H]1C(=O)N[C@@H]([C@@H](C)O)C(=O)N(C)CC(=O)N(C)[C@@H](CC(C)C)C(=O)N[C@@H](CC(C)C)C(=O)N(C)[C@@H](CC(C)C)C(=O)N[C@@H](C)C(=O)N[C@H](C)C(=O)N(C)[C@@H](C[C@H](C)CO)C(=O)N[C@@H](CC(C)C)C(=O)N(C)[C@@H](C(C)C)C(=O)N1C [(2)]
  EC50: < 3000 nM
